Measurements: US20070293486A1, “Alpha-Keto Carbonyl Calpain Inhibitors” (SANTHERA PHARMACEUTICALS (SCHWEIZ) AG, priority 2004, published 2007)

What was measured:
[1] = system: mdx mouse; assay: Longterm treatment of mdx mice (muscle histology); format: in vivo; conditions: for adverse effects upon longterm treatment: longterm treatment every 2nd day i.p.
Protocol: The mdx mouse is a well established animal model for Duchenne Muscular Dystrophy (Bulfield G., Siller W. G., Wight P. A., Moore K. J., X chromosome-linked muscular dystrophy (mdx) in the mouse, Proc. Natl. Acad. Sci. USA., 1984, 81(4), 1189-1192). Selected compounds were tested in longterm treatments of mdx mice, according to the procedures described below.
Mouse strains: C57BL/10scsn and C57BL/10scsn mdx mouse strains were purchased at The Jackson Laboratory (ME, USA) and bred inhouse. Mouse males were sacrificed at the age of 3 or 7 weeks by CO2 asphyxiation.
Treatment: Compounds were dissolved in 50% PEG, 50% saline solution and applied by i.p. injection.
Histology: Tibialis anterior (TA), quadriceps (Quad), and diaphragm (Dia) muscles were collected and mounted on cork supports using gum tragacanth (Sigma-Aldrich, Germany). The samples were snap-frozen in melting isopentane and stored at −80° C. 12 μm thick cryosections of the mid-belly region of muscles were prepared. For staining, sections were air dried and fixed with 4% PFA in PBS for 5 minutes, washed 3 times with PBS and incubated over night at 4° C. in PBS containing 2 μg/ml Alexa Fluor ™ 488 conjugated wheat-germ agglutinin (WGA-Alexa, Molecular Probes, Eugene, Oreg., USA) to stain membrane-bound and extracellular epitopes and 1 μg/ml 4′,6-diamidino-2-phenylindole (DAPI; Molecular Probes) to stain nuclei.
Image acquisition and analysis: Fluorescence microscopy images of both labels were acquired using a digital camera (ColorView II, Soft Imaging System, Münster, Germany) coupled to a fluorescence microscope (Vanox S, Olympus, Tokyo, Japan). Combination of these two stainings to a composite image, assembling of several images to a complete image of the entire muscle cross-section and further semi-automated analysis was performed using the image analysis program AnalySIS (Soft Imaging System). Image analysis of 1200-2900 muscle fibers in each section was performed in three steps: 1) determination of the muscle fiber boundaries, 2) determination of the muscle fiber size, and 3) determination of the percentage of muscle fibers containing centralized nuclei. Six different geometrical parameters were tested for the determination of the muscle fiber size: (a) the “minimal feret” (the minimum distance of parallel tangents at opposing borders of the muscle fiber), (b) the “area”, (c) the “minimal inner diameter” (the minimum diameter through the center of the muscle fiber), (d) the “minimal diameter” (the minimum diameter of a muscle fiber for angles in the range 0° through 179° with step width 1°, (e) the “minimal outer diameter” (the minimum diameter through the muscle fiber from outer border to outer border), and (f) the “perimeter”. The variance coefficient of the muscle fiber size is defined as follows: variance coefficient=(standard deviation of the muscle fiber size/mean of the muscle fiber size of the section)*[…]. For statistical analysis of different variance coefficient values Mann-Whitney U test was used.

[2] = system: Primary fibroblasts from donors with Friedreich Ataxia (FRDA); assay: BSO Assay (cell viability under BSO-induced oxidative stress); format: cell-based; conditions: Homo sapiens, Fibroblast
Protocol: Primary fibroblasts were derived from donors with molecular diagnosis for Friedreich Ataxia (FRDA) and control donors with no mitochondrial disease. Cell lines were obtained from Coriell Cell Repositories (Camden, N.J.; catalog numbers GM04078, GM08402 and GM08399 respectively). All cell types were diagnosed on the molecular level for intronic […] triplet repeat length of at least 400-450 repeats using a PCR-based method. […] Cell viability was measured after the first signs of toxicity appeared in the BSO-treated controls (typically after 16 to 48 h). […] Fluorescence intensity was measured with a Gemini Spectramax XS spectrofluorimeter (Molecular Devices, Sunnyvale, Calif.) using excitation and emission wavelengths of 485 nm and 525 nm respectively.

[3] = system: utrophin protein levels in human DMD myotubes; assay: Utrophin Expression Assay in Human Myotubes; format: cell-based; conditions: 50 nM test compound
Protocol: Utrophin induction was determined by a method which was similar to a method of 1. Courdier-Fruh et al., Neuromuscular Disord., 2002, 12, S95-S104. Primary human muscle cell cultures were prepared from muscle biopsies taken during orthopedic surgery from Duchenne patients (provided by the Association Francaise contre les Myopathies). Cultures were prepared and maintained according to standard protocols. Induction of utrophin expression in human DMD myotubes was assayed at 50 nM or 500 nM of test compound added in differentiation medium. Normalized utrophin protein levels are determined after 56 d of incubation by cell-based ELISA with a mouse monoclonal antibody to the aminoterminal portion of utrophin (NCL-DRP2, Novocastra Laboratories). For calibration, the cell density and differentiation was determined by absorbance measurements of the total dehydrogenase enzyme activity in each well using the calorimetric CellTiter 96®AQ One Solution Reagent Proliferation Assay (Promega) according to the manufacturer's recommendation. Subsequently, cells were fixed, washed, permeabilized with 0.5% (v/v) Triton X-100 and unspecific antibody binding-sites blocked by standard procedures. Utrophin protein levels were determined immunologically with utrophin-specific primary antibody and with an appropriate peroxidase-coupled secondary antibody (Jackson ImmunoResearch Laboratories) using QuantaBlu™ Fluorogenic Peroxidase Substrate Kit (Pierce) for detection. Fluorescence measurements were carried out with a multilabel counter (Wallac) at λex=355 nm and at λem=460 nm. The primary readout of this signal is presented in arbitrary units. For calibration, the arbitrary units representing the relative utrophin protein content of each well was divided by the corresponding cell-titer absorbance value to correct for cell density. For comparison between experiments, the cell-titer corrected readout for utrophin protein content in each well was expressed in percent of solvent treated control cultures (set to 100%), i.e. data are % utrophin protein levels compared to DMSO solvent (N=4).

[4] = 20 mg/kg every 2nd day i.p., 3 week old mice, 4 weeks treatment, diaphragm, vs vehicle mdx controls

Structure (SMILES) | decrease in the variance coefficient of the muscle fiber size in the Dia [1, 4] [%] | adverse effects upon longterm treatment [1] | EC50 [2] [nM] | UTR Induction @50 nM [3] [%] | melting point [°C] | decrease in the variance coefficient of the muscle fiber size in the Dia ([1]; 2 mg/kg every 2nd day i.p., diaphragm, vs vehicle mdx controls) [%] | reduction of the percentage of centralized nuclei in the Dia ([1]; 20 mg/kg every 2nd day i.p., diaphragm, vs vehicle mdx controls) [%] | decrease in the variance coefficient of the muscle fiber size in the Quad ([1]; 20 mg/kg every 2nd day i.p., quadriceps, vs vehicle mdx controls) [%]
CCNC(=O)C(=O)[C@H](Cc1ccc(Cl)cc1)NC(=O)[C@@H](NC(=O)[C@H](Cc1ccccc1)NC(=O)CCCCC1CCS[S+]1[O-])C(C)C (stereo partly shown) [Example 2] | 26 | No prominent adverse effects | 800 | – | – | – | – | –
CCNC(=O)C(=O)C(Cc1ccc(OC)cc1)NC(=O)C(CC(C)C)NC(=O)C(Cc1cccc2ccccc12)NC(=O)CCCCC1CCSS1 (stereo not shown) [Example 637] | 34 | No prominent adverse effects | – | 121 | 188 to 190 | 33 | 34 | 32
